# According to US7462600B2, “Macrolides” (Pfizer Inc, priority 2004, dated 2008):
# Experiments:
# Format in all cases: cell-based
# [1] = test system: Streptococcus pneumoniae 1016; assay: MIC, microtiter broth dilution (NCCLS M100-S14), S. pneumoniae 1016 (susceptible); settings: S. pneumoniae 1016 (susceptible)
# Method in brief: (§1)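 Minimum inhibitory concentration by broth microdilution in trays (NCCLS M100-S14); starting stocks 40 mg/ml, DMSO.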
# [2] = test system: Streptococcus pneumoniae 1095; settings: S. pneumoniae 1095 (ermB); microtiter broth dilution
# Method in brief: as §1
# [3] = test system: Streptococcus pneumoniae 1175; settings: S. pneumoniae 1175 (mefA); microtiter broth dilution
# Method in brief: as §1
# [4] = test system: Streptococcus pyogenes 1079; assay: MIC, microtiter broth dilution (NCCLS M100-S14), S. pyogenes 1079 (ermB); settings: S. pyogenes 1079 (ermB)
# Method in brief: as §1
# [5] = test system: Haemophilus influenzae 1218; assay: MIC, microtiter broth dilution (NCCLS M100-S14), H. influenzae 1218 (susceptible); settings: H. influenzae 1218 (susceptible)
# Method in brief: as §1
SMILES,MIC S. pneumo. 1016 [1] [µg/mL],MIC S. pneumo. 1095 [2] [µg/mL],MIC S. pneumo. 1175 [3] [µg/mL],MIC S. pyogenes 1079 [4] [µg/mL],MIC H. influenzae 1218 [5] [µg/mL]
CC[C@H]1OC(=O)[C@H](C)C(=O)[C@H](C)[C@@H](O[C@@H]2O[C@H](C)C[C@H](N(C)C)[C@H]2O)[C@](C)(OC)C[C@@H](C)C(=O)[C@H](C)[C@H]2N(CC3(O)CN(Cc4ccc5nccnc5c4)C3)C(=O)O[C@]12C [7.03],<0.06,0.12,0.12,>64.00,0.5
CC[C@H]1OC(=O)[C@H](C)C(=O)[C@H](C)[C@@H](O[C@@H]2O[C@H](C)C[C@H](N(C)C)[C@H]2O)[C@](C)(OC)C[C@@H](C)C(=O)[C@H](C)[C@H]2N(CC3(O)CN(Cc4c[nH]c5ncccc45)C3)C(=O)O[C@]12C [7.04],<0.06,<0.06,1,32,0.5
CCC1OC(=O)C(C)C(=O)C(C)C(OC2OC(C)CC(N(C)C)C2O)C(C)(OC)CC(C)C(=O)C(C)C2N(CC3(O)CN(C(=O)c4ccc5ncccc5c4)C3)C(=O)OC12C (stereo not drawn) [7.05],<0.06,2,1,>64.00,1
CCC1OC(=O)C(C)C(=O)C(C)C(OC2OC(C)CC(N(C)C)C2O)C(C)(OC)CC(C)C(=O)C(C)C2N(CC3(O)CN(S(=O)(=O)c4cccc5cccnc45)C3)C(=O)OC12C (stereo not drawn) [7.06],<0.06,32,0.5,>64.00,0.5
CC[C@H]1OC(=O)[C@H](C)C(=O)[C@H](C)[C@@H](O[C@@H]2O[C@H](C)C[C@H](N(C)C)[C@H]2O)[C@](C)(OC)C[C@@H](C)C(=O)[C@H](C)[C@H]2N(CC3(O)CN(Cc4nc(C)[nH]c4C)C3)C(=O)O[C@]12C [7.07],0.12,8,4,>64.00,16
CC[C@H]1OC(=O)[C@H](C)C(=O)[C@H](C)[C@@H](O[C@@H]2O[C@H](C)C[C@H](N(C)C)[C@H]2O)[C@](C)(OC)C[C@@H](C)C(=O)[C@H](C)[C@H]2N(CC3(O)CN(Cc4cccc5nc[nH]c45)C3)C(=O)O[C@]12C [7.08],<0.06,<0.06,0.25,>64.00,0.25
CC[C@H]1OC(=O)[C@H](C)C(=O)[C@H](C)[C@@H](O[C@@H]2O[C@H](C)C[C@H](N(C)C)[C@H]2O)[C@](C)(OC)C[C@@H](C)C(=O)[C@H](C)[C@H]2N(CC3(O)CN(Cc4c[nH]c(=O)[nH]c4=O)C3)C(=O)O[C@]12C [7.09],0.5,64,16,>64.00,16
CC[C@H]1OC(=O)[C@H](C)C(=O)[C@H](C)[C@@H](O[C@@H]2O[C@H](C)C[C@H](N(C)C)[C@H]2O)[C@](C)(OC)C[C@@H](C)C(=O)[C@H](C)[C@H]2N(CC3(O)CN(Cc4ccc(-c5ncccn5)cc4)C3)C(=O)O[C@]12C [7.10],<0.06,64,1,>64.00,2
CC[C@H]1OC(=O)[C@H](C)C(=O)[C@H](C)[C@@H](O[C@@H]2O[C@H](C)C[C@H](N(C)C)[C@H]2O)[C@](C)(OC)C[C@@H](C)C(=O)[C@H](C)[C@H]2N(CC3(O)CN(Cc4ccno4)C3)C(=O)O[C@]12C [7.11],<0.06,4,0.5,>64.00,2
CC[C@H]1OC(=O)[C@H](C)C(=O)[C@H](C)[C@@H](O[C@@H]2O[C@H](C)C[C@H](N(C)C)[C@H]2O)[C@](C)(OC)C[C@@H](C)C(=O)[C@H](C)[C@H]2N(CC3(O)CN(Cc4ccc(-c5cncnc5)cc4)C3)C(=O)O[C@]12C [7.12],<0.06,>64.00,0.5,>64.00,2
CC[C@H]1OC(=O)[C@H](C)C(=O)[C@H](C)[C@@H](O[C@@H]2O[C@H](C)C[C@H](N(C)C)[C@H]2O)[C@](C)(OC)C[C@@H](C)C(=O)[C@H](C)[C@H]2N(CC3(O)CN(Cc4ccn(-c5cccnc5)n4)C3)C(=O)O[C@]12C [7.13],<0.06,1,1,>64.00,2
CC[C@H]1OC(=O)[C@H](C)C(=O)[C@H](C)[C@@H](O[C@@H]2O[C@H](C)C[C@H](N(C)C)[C@H]2O)[C@](C)(OC)C[C@@H](C)C(=O)[C@H](C)[C@H]2N(CC3(O)CN(S(=O)(=O)c4cccc5cnccc45)C3)C(=O)O[C@]12C [7.14],<0.06,1,0.12,>64.00,0.25
CC[C@H]1OC(=O)[C@H](C)C(=O)[C@H](C)[C@@H](O[C@@H]2O[C@H](C)C[C@H](N(C)C)[C@H]2O)[C@](C)(OC)C[C@@H](C)C(=O)[C@H](C)[C@H]2N(CC3(O)CN(S(=O)(=O)c4c(C)n[nH]c4C)C3)C(=O)O[C@]12C [7.15],<0.06,>64.00,4,>64.00,2
CC[C@H]1OC(=O)[C@H](C)C(=O)[C@H](C)[C@@H](O[C@@H]2O[C@H](C)C[C@H](N(C)C)[C@H]2O)[C@](C)(OC)C[C@@H](C)C(=O)[C@H](C)[C@H]2N(CC3(O)CN(S(=O)(=O)c4ccc5[nH]c(=O)oc5c4)C3)C(=O)O[C@]12C [7.16],<0.06,64,4,>64.00,1
CC[C@H]1OC(=O)[C@H](C)C(=O)[C@H](C)[C@@H](O[C@@H]2O[C@H](C)C[C@H](N(C)C)[C@H]2O)[C@](C)(OC)C[C@@H](C)C(=O)[C@H](C)[C@H]2N(CC3(O)CN(C(=O)c4ccc5cccnc5n4)C3)C(=O)O[C@]12C [7.17],<0.06,<0.06,0.5,>64.00,1
CC[C@H]1OC(=O)[C@H](C)C(=O)[C@H](C)[C@@H](O[C@@H]2O[C@H](C)C[C@H](N(C)C)[C@H]2O)[C@](C)(OC)C[C@@H](C)C(=O)[C@H](C)[C@H]2N(CC3(O)CN(C(=O)c4ccc5nccnc5c4)C3)C(=O)O[C@]12C [7.18],<0.06,0.25,0.25,>64.00,2
CC[C@H]1OC(=O)[C@H](C)C(=O)[C@H](C)[C@@H](O[C@@H]2O[C@H](C)C[C@H](N(C)C)[C@H]2O)[C@](C)(OC)C[C@@H](C)C(=O)[C@H](C)[C@H]2N(CC3(O)CN(C(=O)c4cccc5ncccc45)C3)C(=O)O[C@]12C [7.19],<0.06,0.12,0.25,>64.00,1
CC[C@H]1OC(=O)[C@H](C)C(=O)[C@H](C)[C@@H](O[C@@H]2O[C@H](C)C[C@H](N(C)C)[C@H]2O)[C@](C)(OC)C[C@@H](C)C(=O)[C@H](C)[C@H]2N(CC3(O)CN(C(=O)c4cccc5cccnc45)C3)C(=O)O[C@]12C [7.20],<0.06,2,1,>64.00,0.5
CC[C@H]1OC(=O)[C@H](C)C(=O)[C@H](C)[C@@H](O[C@@H]2O[C@H](C)C[C@H](N(C)C)[C@H]2O)[C@](C)(OC)C[C@@H](C)C(=O)[C@H](C)[C@H]2N(CC3(O)CN(C(=O)c4ccc5cccnc5c4)C3)C(=O)O[C@]12C [7.21],<0.06,0.5,1,>64.00,2
CC[C@H]1OC(=O)[C@H](C)C(=O)[C@H](C)[C@@H](O[C@@H]2O[C@H](C)C[C@H](N(C)C)[C@H]2O)[C@](C)(OC)C[C@@H](C)C(=O)[C@H](C)[C@H]2N(CC3(O)CN(C(=O)c4ccc5ccccc5n4)C3)C(=O)O[C@]12C [7.22],<0.06,<0.06,0.12,>64.00,1
CC[C@H]1OC(=O)[C@H](C)C(=O)[C@H](C)[C@@H](O[C@@H]2O[C@H](C)C[C@H](N(C)C)[C@H]2O)[C@](C)(OC)C[C@@H](C)C(=O)[C@H](C)[C@H]2N(CC3(O)CN(C(=O)c4cncc5ccccc45)C3)C(=O)O[C@]12C [7.23],<0.06,0.5,0.5,>64.00,2
